Consider three molecules from patent publication US5145854A, “1-formyl-5,8,10-trideazafolates” (priority 1991, dated 1992).

The target of one test is AICARFTase (Homo sapiens, UniProt P31939). In words: Inhibition of AICARFTase. It is filed as biochemical.
Test [1] has as its target T1, hog liver glycinamide ribonucleotide formyltransferase (GARFTase) (Sus scrofa, UniProt A0A8W4FJW8).
T1 construct: hog liver glycinamide ribonucleotide formyltransferase; from tissue; host or cells: hog liver
T1 sequence (A0A8W4FJW8 1-1009): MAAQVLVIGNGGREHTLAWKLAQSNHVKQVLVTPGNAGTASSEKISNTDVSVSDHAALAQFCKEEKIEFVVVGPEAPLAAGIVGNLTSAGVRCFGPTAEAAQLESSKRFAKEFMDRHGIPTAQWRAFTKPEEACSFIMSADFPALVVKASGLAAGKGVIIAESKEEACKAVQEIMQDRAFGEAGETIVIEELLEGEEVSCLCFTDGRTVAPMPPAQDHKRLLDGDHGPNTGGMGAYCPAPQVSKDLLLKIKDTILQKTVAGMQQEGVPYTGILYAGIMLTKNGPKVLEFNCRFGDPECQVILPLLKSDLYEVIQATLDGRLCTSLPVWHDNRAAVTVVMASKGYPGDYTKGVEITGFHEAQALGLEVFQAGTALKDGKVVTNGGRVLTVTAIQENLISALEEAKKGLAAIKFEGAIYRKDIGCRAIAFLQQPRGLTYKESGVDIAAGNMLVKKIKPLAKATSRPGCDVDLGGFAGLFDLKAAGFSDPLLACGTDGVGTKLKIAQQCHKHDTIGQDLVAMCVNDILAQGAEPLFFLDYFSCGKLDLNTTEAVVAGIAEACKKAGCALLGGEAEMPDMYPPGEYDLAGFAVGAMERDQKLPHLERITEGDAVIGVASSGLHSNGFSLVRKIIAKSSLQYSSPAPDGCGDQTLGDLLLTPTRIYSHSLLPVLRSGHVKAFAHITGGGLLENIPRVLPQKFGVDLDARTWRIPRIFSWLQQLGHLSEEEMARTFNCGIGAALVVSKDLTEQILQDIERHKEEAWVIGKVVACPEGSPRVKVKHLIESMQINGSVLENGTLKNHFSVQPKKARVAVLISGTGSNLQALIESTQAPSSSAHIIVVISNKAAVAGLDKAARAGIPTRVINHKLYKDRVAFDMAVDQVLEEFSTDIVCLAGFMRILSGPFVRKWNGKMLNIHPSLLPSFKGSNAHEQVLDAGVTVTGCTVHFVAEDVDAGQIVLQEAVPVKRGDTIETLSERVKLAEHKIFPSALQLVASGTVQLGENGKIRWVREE
In words: Inhibition of hog liver glycinamide ribonucleotide formyltransferase. It is filed as biochemical. Particulars: for IC50: hog liver enzyme, (R,S) diastereomer mixture where marked, read-out: I50 (μM) GARFTase. An excerpt:
The representative compound of the present invention is 10-formyl-5,8,10-trideazatetrahydrofolic acid (FTDF) having the formula 1.

Each structure is given as a SMILES string. Like-named read-outs stand apart in the source and are kept apart here.

Chain of AICARFTase (P31939 whole entry): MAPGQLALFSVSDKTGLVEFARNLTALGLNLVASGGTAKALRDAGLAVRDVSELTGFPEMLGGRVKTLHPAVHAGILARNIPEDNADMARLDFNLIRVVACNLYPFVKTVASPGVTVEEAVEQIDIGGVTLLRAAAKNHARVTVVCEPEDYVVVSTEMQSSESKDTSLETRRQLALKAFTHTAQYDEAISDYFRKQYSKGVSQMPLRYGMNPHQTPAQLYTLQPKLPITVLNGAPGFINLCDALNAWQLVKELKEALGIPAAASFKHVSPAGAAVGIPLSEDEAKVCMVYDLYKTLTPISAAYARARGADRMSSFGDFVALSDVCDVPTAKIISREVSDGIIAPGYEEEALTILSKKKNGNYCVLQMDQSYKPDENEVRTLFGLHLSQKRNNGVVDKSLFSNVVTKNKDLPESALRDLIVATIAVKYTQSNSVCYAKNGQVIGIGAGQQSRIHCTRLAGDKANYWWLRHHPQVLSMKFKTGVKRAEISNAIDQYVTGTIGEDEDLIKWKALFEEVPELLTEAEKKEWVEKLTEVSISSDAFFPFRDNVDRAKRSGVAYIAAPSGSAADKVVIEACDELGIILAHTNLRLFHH

In the case of `Nc1nc2c(c(=O)[nH]1)CC(CCc1ccc(C(=O)N[C@@H](CCC(=O)O)C(=O)O)cc1)CN2` (some centres unmarked) [DDATHF, 5,10-dideazatetrahydrofolic acid, reference compound], the IC50 at AICARFTase is greater than 500 µM.
Take `Nc1nc2ccc(CC(C=O)c3ccc(C(=O)N[C@@H](CCC(=O)O)C(=O)O)cc3)cc2c(=O)[nH]1` (some centres unmarked) [FTDF, 10-Formyl-5,8,10-trideazafolic Acid]: the “potency against GARFTase relative to DDATHF” value in test [1] (hog liver GARFTase, identical experimental conditions) is given as “almost twice as potent”. For the same molecule, the values for the IC50 (in test [1]; on AICARFTase (read-out: I50 (μM) AICARFTase)) were 0.15 µM and 18 µM, respectively.
Consider `Nc1nc(N)c(CCCNc2ccc(C(=O)N[C@@H](CCC(=O)O)C(=O)O)cc2)c(=O)[nH]1` [Compound 5-DACTHF, 5-deazaacyclotetrahydrofolic acid, reference compound], for which the IC50 in test [1] is 2.5 µM.
